Experimental data published in patent US20260183408A1, “POLYPEPTIDE AND USE THEREOF” (SHENZHEN CHENYANG BIOLOGICAL TECHNOLOGY CO., LTD, priority 2022, published 2026).

Columns and labels:
CRS mice [1] = experiment: Open field test (OFT, total distance); type: in vivo, mouse; settings: single intraperitoneal 3 nmol/g, 1 hour after treatment (FIG. 12)
Experimental: (§1) The C57BL/6J mice were horizontally fixed for 6 h (from 10 to 16 o'clock) in a first acrylic restraint which is cylindrical and flat-bottomed (25×90 mm) every day for 2 weeks. The filter had several slots which could adapt to the size of each mouse to firmly restrain the mouse and inhibit body movements of the limb and trunk without causing pain. Immediately after being restrained, the mice were sent back to their cages. Unrestrained mice (control) stayed in their cages when no CRS procedure was performed. Neither the control mice nor the CRS mice could have access to food and water during the CRS exposure.
(§2) The C57BL/6J mice were subjected to various stress including restraint (for 4 h), cage tilting (for 45 times, with 12 h each time), light-dark cycle reversal (once), flash (for 12 h), and dirty cage (for 2 times, with 14 h each time). The protocol lasted 6 weeks. Control mice were not subjected to corresponding stress.
(§3) The mice were treated with TAT or TAT-D2R-KL (single intraperitoneal administration at 3 nmol/g in both cases). […]
OFT (for testing the total distance): The mice were acclimated to the experimental environment for 1 h and placed in a chamber of 45 cm×45 cm×30 cm. A video was recorded for 5 min to observe the motional activity of the mice. The total distance covered by the mice was measured, analyzed and expressed in millimeters.

CRS mice [2] = experiment: Sucrose preference test (SPT); type: in vivo, mouse; settings: single intraperitoneal 3 nmol/g, compared with TAT-treated mice (FIG. 12)
Experimental: as §1, §2, §3
SPT (Sucrose preference test): A two-bottle choice paradigm was adopted. […] Finally, the volume of consumed water or sucrose solution was recorded and calculation was carried out with the following equation (I): […]

D2R/5-HT2CR complex = molecular target: T1, D2R/5-HT2CR complex (Mus musculus, UniProt P34968); experiment: Co-immunoprecipitation of hippocampal tissue of polypeptide-treated SPS mice; type: in vivo; settings: intraperitoneal, 1.5 h (FIG. 7 left)
T1 construct: from tissue
T1 sequence (P34968 33-459): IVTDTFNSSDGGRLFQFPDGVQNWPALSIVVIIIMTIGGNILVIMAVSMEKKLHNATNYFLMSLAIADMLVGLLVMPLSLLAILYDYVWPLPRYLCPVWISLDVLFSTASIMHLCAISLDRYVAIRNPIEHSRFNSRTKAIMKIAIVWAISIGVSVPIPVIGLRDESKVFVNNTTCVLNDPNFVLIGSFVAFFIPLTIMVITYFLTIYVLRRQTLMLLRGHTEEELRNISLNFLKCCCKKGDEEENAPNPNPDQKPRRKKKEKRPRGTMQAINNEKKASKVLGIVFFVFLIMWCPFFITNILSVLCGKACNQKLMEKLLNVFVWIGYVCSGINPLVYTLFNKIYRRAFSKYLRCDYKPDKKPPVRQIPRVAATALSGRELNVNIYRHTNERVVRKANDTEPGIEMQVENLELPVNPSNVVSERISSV
Experimental: Co-immunoprecipitation was performed using protein samples (with 100-500 μg protein) from the hippocampal tissue of the Balb/c mice. Mouse monoclonal antibodies against both 5-HT2CR and D2R, D2R, or 5-HT2CR were used for precipitation with 25 μl of the slurry of protein A/G+agarose beads (SantaCruz Biotechnology, sc-2001).
Western blotting analysis after precipitation: Denatured (at 100° C. for 10 min) proteins were separated on an 8% SDS-PAGE gel, then transferred to a nitrocellulose membrane, which was then blocked with skim milk in TBST (Tris-buffered saline with 0.1% Tween 20). Next, incubation was carried out with the primary antibodies at 4° C. overnight. Finally, treatment with an HRP-conjugated secondary antibody were performed for 1 h, signals were detected using the ECL UltraSignal chemiluminescence kit (4A Biotech, cat. no. 4AW011-500), and the bands were analyzed for densities using the Image Lab software.
The SPS model was established with male Balb/c mice. […]
The fear conditioning, safety learning, and recall tests were carried out in two contexts (the fear conditioning and safety learning tests were carried out in context A; and the recall test was carried out in context B). […] After the experiment was completed, the freezing level was manually calculated based on the recorded video. […]

SPS mice [3] = experiment: Corticosterone, cortisol, DA and 5-HT levels in hippocampus and cortex; type: in vivo, mouse
CRS mice [4] = experiment: Tail suspension test (TST); type: in vivo, mouse; settings: single intraperitoneal 3 nmol/g, 1 hour after treatment, compared with TAT-treated mice (FIG. 12)
Experimental: as §1, §2, §3
TST: The mice were suspended with a tape to a position 40 cm above the floor within a rectangular compartment (length 55 cm× width 20 cm× depth 11.5 cm). A video was recorded for a total of 5 minutes, and the immobility time was recorded. […]

SPS mice [5] = experiment: Fear conditioning, safety learning and recall tests (freezing level); type: in vivo; settings: treated for 1.5 h, 3 nM intraperitoneally, 100 μl/10 g mouse (FIG. 7 right)
Experimental: The SPS model was established with male Balb/c mice. The modified SPS protocol was used to comprise a series of stress exposure: 2 hours of restraint stress (inside a 50-mL plastic tube having several air holes), 3 min of rest, 12 min of forced swimming in a transparent glass tank (at about 24° C.), 15 min of rest (drying under a warming lamp), 20 min of predator (rat) odor exposure, followed by ether anesthesia (until the mice completely lost consciousness). Thereafter, the mice are transferred back to their cages with fresh bedding. The control mice were housed in groups and received no stress exposure. After the model establishment, all mice were raised undisturbed for one week.
The fear conditioning, safety learning, and recall tests were carried out in two contexts (the fear conditioning and safety learning tests were carried out in context A; and the recall test was carried out in context B). The shapes and smells provided in contexts A and B were different. Indoor floors were cleaned with 1% acetic acid or 75% ethanol prior to testing. […] After the experiment was completed, the freezing level was manually calculated based on the recorded video. The criterion for a freezing behavior is that if no movement other than normal breathing of a mouse was detected within 2 seconds, then the mouse was considered freezing. […]

Substance: TAT-D2R-KL: C-terminus of the KL (K226-L240) region of D2R fused to the transduction domain of HIV-1 Tat protein (SEQ ID NO: 5)
- overall movement ability (total distance) (CRS mice [1]): had no effect
- sucrose preference (CRS mice [2]): significantly enhanced
- interaction between 5-HT2CR and D2R (D2R/5-HT2CR complex): decrease
- level of cortisol (SPS mice [3]; hippocampus and cortex of SPS mice (FIG. 9)): did not significantly change
- level of DA (SPS mice [3]; hippocampus and cortex of SPS mice (FIG. 10)): did not significantly change
- elevated corticosterone level (SPS mice [3]; hippocampus of SPS mice (FIG. 8)): significantly reduced
- upregulated 5-HT (SPS mice [3]; hippocampus of SPS mice (FIG. 11)): did not reduce
- immobility time (TST) (CRS mice [4]): significantly reduced
- freezing level (SPS mice [5]): reduced
